Experiments:
[1] = molecular target: T1, ABCG2 (Homo sapiens, UniProt Q9UNQ0); assay: intracellular accumulation in ABCG2-transfected HEK293 cells; assay type: cell-based
T1 sequence (Q9UNQ0 1-655): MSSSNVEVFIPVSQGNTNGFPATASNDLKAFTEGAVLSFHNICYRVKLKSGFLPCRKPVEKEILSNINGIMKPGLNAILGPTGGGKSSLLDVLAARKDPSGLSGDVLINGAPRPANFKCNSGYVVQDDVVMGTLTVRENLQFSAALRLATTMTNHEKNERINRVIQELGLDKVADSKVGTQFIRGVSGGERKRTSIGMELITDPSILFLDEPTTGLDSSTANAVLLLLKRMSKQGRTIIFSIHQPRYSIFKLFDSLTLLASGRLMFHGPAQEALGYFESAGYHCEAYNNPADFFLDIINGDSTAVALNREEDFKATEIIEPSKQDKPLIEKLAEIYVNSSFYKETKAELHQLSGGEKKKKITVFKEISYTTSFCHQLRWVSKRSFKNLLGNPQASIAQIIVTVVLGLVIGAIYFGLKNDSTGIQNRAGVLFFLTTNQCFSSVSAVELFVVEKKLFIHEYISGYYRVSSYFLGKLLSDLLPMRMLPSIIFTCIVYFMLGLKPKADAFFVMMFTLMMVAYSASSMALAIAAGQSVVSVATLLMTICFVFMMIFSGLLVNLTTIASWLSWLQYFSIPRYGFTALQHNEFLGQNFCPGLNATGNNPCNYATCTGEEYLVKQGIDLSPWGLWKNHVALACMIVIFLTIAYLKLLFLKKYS

[2] = molecular target: T1, ABCG2; assay type: cell-based

| Compound | intracellular accumulation in ABCG2-transfected HEK293 cells [1] | ATP-dependent uptake into membrane vesicles [2] |
| --- | --- | --- |
| O=C1c2c(O)ccc(O)c2C(=O)c2c(NCCNCCO)ccc(NCCNCCO)c21 [[3H]-mitoxantrone] | the intracellular levels of [^3H]-mitoxantrone, a known substrate of ABCG2 was measured in the presence or absence of VKJP1 or VKJP3 |  |
| CN(Cc1cnc2nc(N)nc(N)c2n1)c1ccc(C(=O)N[C@@H](CCC(=O)O)C(=O)O)cc1 [[3H]-methotrexate] |  | using membrane vesicles to determine the rate of ATP-dependent uptake of [^3H]-methotrexate, another substrate of ABCG2 |

Source: paper PMC3443622 (2012)
